From US8329904B2, “Azacyclic derivatives” (Hoffmann-La Roche Inc., priority 2009, dated 2012)
pIC50: −log10 of the molar value.

The compounds below were run against T1, human HSL (Homo sapiens, UniProt Q05469) (assay: Human Hormone-Sensitive Lipase (HSL) Enzyme Inhibition Assay). Details: colorimetric assay, 2,3-dimercapto-1-propanol tributyrate (DMPT) substrate, 37° C. for 20 minutes, absorbance at 405 nm; read-out: HSL hum IC50.
T1 construct: overlapping PCR to generate a full length human HSL ORF with a 3′-His6 tag; His6 (C); made in house; host or cells: High 5 insect cells (baculovirus, pFast-BAC)
T1 sequence (Q05469 1-1076): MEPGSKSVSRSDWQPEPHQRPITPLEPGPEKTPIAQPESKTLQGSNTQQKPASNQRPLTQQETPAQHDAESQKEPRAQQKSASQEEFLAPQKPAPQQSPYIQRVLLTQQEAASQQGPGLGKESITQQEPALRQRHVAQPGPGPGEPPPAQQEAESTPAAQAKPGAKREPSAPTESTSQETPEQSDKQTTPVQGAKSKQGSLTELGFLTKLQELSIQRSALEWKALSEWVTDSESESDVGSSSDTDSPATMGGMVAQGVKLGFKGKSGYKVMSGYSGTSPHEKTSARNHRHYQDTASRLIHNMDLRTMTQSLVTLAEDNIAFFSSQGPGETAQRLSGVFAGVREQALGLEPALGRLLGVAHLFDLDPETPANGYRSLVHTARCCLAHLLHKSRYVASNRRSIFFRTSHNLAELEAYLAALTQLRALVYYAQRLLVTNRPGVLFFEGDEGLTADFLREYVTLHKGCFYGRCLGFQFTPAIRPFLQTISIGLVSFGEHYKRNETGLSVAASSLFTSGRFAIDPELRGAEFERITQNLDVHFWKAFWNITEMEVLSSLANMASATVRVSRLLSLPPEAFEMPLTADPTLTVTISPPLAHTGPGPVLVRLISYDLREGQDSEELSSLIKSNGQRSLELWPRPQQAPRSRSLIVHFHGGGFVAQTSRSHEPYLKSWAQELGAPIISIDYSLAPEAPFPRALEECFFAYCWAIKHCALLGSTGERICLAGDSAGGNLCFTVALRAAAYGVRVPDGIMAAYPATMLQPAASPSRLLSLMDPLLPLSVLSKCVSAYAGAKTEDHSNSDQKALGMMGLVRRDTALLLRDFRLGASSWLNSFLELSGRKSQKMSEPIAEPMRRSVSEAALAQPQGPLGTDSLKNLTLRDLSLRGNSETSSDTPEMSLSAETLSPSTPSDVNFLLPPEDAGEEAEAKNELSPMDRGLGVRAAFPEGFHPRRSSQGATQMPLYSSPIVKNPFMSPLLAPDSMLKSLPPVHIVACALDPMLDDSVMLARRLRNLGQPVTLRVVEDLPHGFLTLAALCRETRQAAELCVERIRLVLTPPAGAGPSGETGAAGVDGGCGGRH
Format: biochemical
Summary of the method: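 Colorimetric thioester hydrolysis: compounds in DMSO series mixed with DMPT (1.5 mM) in MOPS pH 7.2 with BSA, then baculovirus-expressed His6-tagged full-length human HSL added, 37° C, 20 min. DTNB plus detergents added, 15 min room temperature, absorbance at 405 nm.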

Row | Compound | pIC50
1 | O=C1N(c2ccc(OC(F)(F)F)cc2)CCC12CCN(S(=O)(=O)C1CC1)CC2 [Example 96, 8-Cyclopropanesulfonyl-2-(4-trifluoromethoxy-phenyl)-2,8-diaza-spiro[4.5]decan-1-one] | 6.89
2 | Cc1noc(C)c1S(=O)(=O)N1CCC2(CCN(c3ccc(OC(C)C(F)(F)F)cc3)C2=O)CC1 (stereo not shown) [Example 97, 8-(3,5-Dimethyl-isoxazole-4-sulfonyl)-2-[4-(2,2,2-trifluoro-1-methyl-ethoxy)-phenyl]-2,8-diaza-spiro[4.5]decan-1-one] | 6.96
3 | CC(Oc1ccc(N2CCC3(CCN(S(=O)(=O)C4CC4)CC3)C2=O)cc1)C(F)(F)F (stereo not shown) [Example 98, 8-Cyclopropanesulfonyl-2-[4-(2,2,2-trifluoro-1-methyl-ethoxy)-phenyl]-2,8-diaza-spiro[4.5]decan-1-one] | 6.77
4 | CC(Oc1ccc(N2CCC3(CCN(S(=O)(=O)c4ccccc4OC(F)(F)F)CC3)C2=O)cc1)C(F)(F)F (stereo not shown) [Example 99, 8-(2-Trifluoromethoxy-benzenesulfonyl)-2-[4-(2,2,2-trifluoro-1-methyl-ethoxy)-phenyl]-2,8-diaza-spiro[4.5]decan-1-one] | 7.52
5 | CC(Oc1ccc(N2CCC3(CCN(S(=O)(=O)c4ccccc4C(F)(F)F)CC3)C2=O)cc1)C(F)(F)F (stereo not shown) [Example 100, 8-(2-Trifluoromethyl-benzenesulfonyl)-2-[4-(2,2,2-trifluoro-1-methyl-ethoxy)-phenyl]-2,8-diaza-spiro[4.5]decan-1-one] | 7.40
6 | CC(Oc1ccc(N2CCC3(CCN(S(=O)(=O)c4ccccc4C(F)(F)F)CC3)C2=O)cc1)C(F)(F)F (stereo not shown) [Example 101] | 7.40
7 | CC(C)CS(=O)(=O)N1CCC2(CCN(c3ccc(OCCC(F)(F)F)cc3)C2=O)CC1 [Example 102, 8-(2-Methyl-propane-1-sulfonyl)-2-[4-(3,3,3-trifluoro-propoxy)-phenyl]-2,8-diaza-spiro[4.5]decan-1-one] | 6.44
8 | O=C1N(c2ccc(OCCC(F)(F)F)cc2)CCC12CCN(S(=O)(=O)c1ccccc1OC(F)(F)F)CC2 [Example 103, 8-(2-Trifluoromethoxy-benzenesulfonyl)-2-[4-(3,3,3-trifluoro-propoxy)-phenyl]-2,8-diaza-spiro[4.5]decan-1-one] | 7.30
9 | O=C1N(c2ccc(I)cc2)CCC12CCN(S(=O)(=O)c1ccccc1OC(F)(F)F)CC2 [Example 104, 2-(4-Iodo-phenyl)-8-(2-trifluoromethoxy-benzenesulfonyl)-2,8-diaza-spiro[4.5]decan-1-one] | 7.40
10 | COCCc1ccc(N2CCC3(CCN(S(=O)(=O)c4ccccc4OC(F)(F)F)CC3)C2=O)cc1 [Example 105, 2-[4-(2-Methoxy-ethyl)-phenyl]-8-(2-trifluoromethoxy-benzenesulfonyl)-2,8-diaza-spiro[4.5]decan-1-one] | 7.70
11 | COCCOc1ccc(N2CCC3(CCN(S(=O)(=O)c4ccccc4OC(F)(F)F)CC3)C2=O)cc1 [Example 106, 2-[4-(2-Methoxy-ethoxy)-phenyl]-8-(2-trifluoromethoxy-benzenesulfonyl)-2,8-diaza-spiro[4.5]decan-1-one] | 7.40
12 | COCCCOc1ccc(N2CCC3(CCN(S(=O)(=O)CC(C)C)CC3)C2=O)cc1 [Example 107, 2-[4-(3-Methoxy-propoxy)-phenyl]-8-(2-methyl-propane-1-sulfonyl)-2,8-diaza-spiro[4.5]decan-1-one] | 6.13
13 | COCC(C)(C)c1ccc(N2CCC3(CCN(S(=O)(=O)CC(C)C)CC3)C2=O)cc1 [Example 108, 2-[4-(2-Methoxy-1,1-dimethyl-ethyl)-phenyl]-8-(2-methyl-propane-1-sulfonyl)-2,8-diaza-spiro[4.5]decan-1-one] | 7.00
14 | COCCCOc1ccc(N2CCC3(CCN(S(=O)(=O)c4ccccc4OC(F)(F)F)CC3)C2=O)cc1 [Example 109, 2-[4-(3-Methoxy-propoxy)-phenyl]-8-(2-trifluoromethoxy-benzenesulfonyl)-2,8-diaza-spiro[4.5]decan-1-one] | 7.40
15 | COCC(C)(C)c1ccc(N2CCC3(CCN(S(=O)(=O)c4ccccc4OC(F)(F)F)CC3)C2=O)cc1 [Example 110, 2-[4-(2-Methoxy-1,1-dimethyl-ethyl)-phenyl]-8-(2-trifluoromethoxy-benzenesulfonyl)-2,8-diaza-spiro[4.5]decan-1-one] | 7.52
16 | Cc1noc(C)c1S(=O)(=O)N1CCC2(CCN(c3ccc(OC(C)C)cc3)C2=O)CC1 [Example 111, 8-(3,5-Dimethyl-isoxazole-4-sulfonyl)-2-(4-isopropoxy-phenyl)-2,8-diaza-spiro[4.5]decan-1-one] | 6.96
17 | COCC(C)(C)c1ccc(N2CCC3(CCN(S(=O)(=O)c4c(C)noc4C)CC3)C2=O)cc1 [Example 112, 8-(3,5-Dimethyl-isoxazole-4-sulfonyl)-2-[4-(2-methoxy-1,1-dimethyl-ethyl)-phenyl]-2,8-diaza-spiro[4.5]decan-1-one] | 6.57
18 | CC(Oc1ccc(N2CCC3(CCN(C(=O)C4(C)CC4(Cl)Cl)CC3)C2=O)cc1)C(F)(F)F (stereo not shown) [Example 113, 8-(2,2-Dichloro-1-methyl-cyclopropanecarbonyl)-2-[4-(2,2,2-trifluoro-1-methyl-ethoxy)-phenyl]-2,8-diaza-spiro[4.5]decan-1-one] | 6.85
19 | O=C1N(c2ccc(OCC(F)(F)F)cc2)CCC12CCN(S(=O)(=O)c1ccccc1Cl)CC2 [Example 115, 8-(2-Chloro-benzenesulfonyl)-2-[4-(2,2,2-trifluoro-ethoxy)-phenyl]-2,8-diaza-spiro[4.5]decan-1-one] | 7.52
20 | O=C1N(c2ccc(OCCC(F)(F)F)nc2)CCC12CCN(S(=O)(=O)c1ccccc1Cl)CC2 [Example 116, 8-(2-Chloro-benzenesulfonyl)-2-[6-(3,3,3-trifluoro-propoxy)-pyridin-3-yl]-2,8-diaza-spiro[4.5]decan-1-one] | 6.96
21 | O=C1N(c2ccc(OCC(F)(F)F)nc2)CCC12CCN(S(=O)(=O)c1ccccc1)CC2 [Example 117, 8-Benzenesulfonyl-2-[6-(2,2,2-trifluoro-ethoxy)-pyridin-3-yl]-2,8-diaza-spiro[4.5]decan-1-one] | 7.22
22 | O=C1N(c2cnc(OCC(F)(F)F)nc2)CCC12CCN(S(=O)(=O)c1ccccc1)CC2 [Example 118, 8-Benzenesulfonyl-2-[2-(2,2,2-trifluoro-ethoxy)-pyrimidin-5-yl]-2,8-diaza-spiro[4.5]decan-1-one] | 6.33
23 | O=C1N(c2ccc(OCC(F)(F)F)nc2)CCC12CCN(S(=O)(=O)c1ccccc1Cl)CC2 [Example 119, 8-(2-Chloro-benzenesulfonyl)-2-[6-(2,2,2-trifluoro-ethoxy)-pyridin-3-yl]-2,8-diaza-spiro[4.5]decan-1-one] | 7.30
24 | CC(C)(C)CC(=O)N1CCC2(CC1)CCN(c1ccc(OCC(F)(F)F)cc1)C2=O [Example 120, 8-(3,3-Dimethyl-butyryl)-2-[4-(2,2,2-trifluoro-ethoxy)-phenyl]-2,8-diaza-spiro[4.5]decan-1-one] | 6.22
25 | CC1(C(=O)N2CCC3(CC2)CCN(c2ccc(OCC(F)(F)F)cc2)C3=O)CC1(Cl)Cl (stereo not shown) [Example 121, 8-(2,2-Dichloro-1-methyl-cyclopropanecarbonyl)-2-[4-(2,2,2-trifluoro-ethoxy)-phenyl]-2,8-diaza-spiro[4.5]decan-1-one] | 6.70
26 | CC(C)(C)CC(=O)N1CCC2(CC1)CCN(c1ccc(OCC(F)(F)F)nc1)C2=O [Example 122, 8-(3,3-Dimethyl-butyryl)-2-[6-(2,2,2-trifluoro-ethoxy)-pyridin-3-yl]-2,8-diaza-spiro[4.5]decan-1-one] | 6.27
27 | CC(Oc1ccc(N2CCC3(CCN(C(=O)CC(C)(C)C)CC3)C2=O)cc1)C(F)(F)F (stereo not shown) [Example 123, 8-(3,3-Dimethyl-butyryl)-2-[4-(2,2,2-trifluoro-1-methyl-ethoxy)-phenyl]-2,8-diaza-spiro[4.5]decan-1-one] | 6.60
28 | CCn1cc2cc(N3CCC4(CCN(S(=O)(=O)c5ccccc5Cl)CC4)C3=O)ccc2n1 [Example 124, 8-(2-Chloro-benzenesulfonyl)-2-(2-ethyl-2H-indazol-5-yl)-2,8-diaza-spiro[4.5]decan-1-one] | 7.22
